Laboratory results published in patent publication US9340819B2, “Method for detecting the presence of carbapenemase-producing bacteria in a sample” (priority 2011, dated 2016).
In brackets after ≈: the same amount, converted by molar mass.

Experiments:
[1] = system: E. coli; test: MIC of carbapenem by Etest (Example 2); type: cell-based, Escherichia coli
Method: (§1) All strains had previously been characterized for their β-lactamase content at the molecular level. Minimum inhibitory concentration of carbapenem were determined using the Etest® (AB bioMérieux, Solna, Sweden) and results were recorded according to US guidelines (CLSI), as updated in 2011.

[2] = system: P. rettgeri; test: MIC of carbapenem by Etest (Example 2); type: cell-based, Proteus rettgeri
Method: as §1

[3] = system: C. freundii; test: MIC of carbapenem by Etest (Example 2); type: cell-based, Citrobacter freundii
Method: as §1

[4] = system: E. aerogenes; test: MIC of carbapenem by Etest (Example 2); type: cell-based, Enterobacter aerogenes
Method: as §1

[5] = system: E. sakazaki; test: MIC of carbapenem by Etest (Example 2); type: cell-based; conditions: ESBL + decreased membrane permeability; E. sakazaki CTX-M-15, n=1
Method: as §1

[6] = system: K. ozonae; test: MIC of carbapenem by Etest (Example 2); type: cell-based; conditions: K. ozonae KPC-3, n=1
Method: as §1

[7] = system: Salmonella spp.; test: MIC of carbapenem by Etest (Example 2); type: cell-based; conditions: Salmonella spp. KPC-2, n=1
Method: as §1

[8] = system: K. pneumoniae; test: MIC of carbapenem by Etest (Example 2); type: cell-based, Klebsiella pneumoniae
Method: as §1

[9] = system: M. morganii; test: MIC of carbapenem by Etest (Example 2); type: cell-based, Morganella morganii; conditions: Plasmid mediated AmpC or chromosomal AmpC + decreased membrane permeability; M. morganii Overexpressed cephalosporinase, n=2
Method: as §1

[10] = system: P. putida; test: Susceptibility testing by Etest on Mueller-Hinton agar (Example 3); type: cell-based; conditions: Pseudomonas putida
Method: (§2) Susceptibility testing was performed using the Etest® (bioMérieux; La Balmes-les-Grottes, France) on Mueller-Hinton agar plates (Becton Dickinson, Le Pont de Chaix, France) at 37° C. and results were recorded according to US guidelines (CLSI), as updated in 2012. The breakpoints for imipenem, meropenem and doripenem are as follows; susceptibility (S)≦2, and resistance (R)≧8 μg/ml.

[11] = system: P. fluorescens; test: as above; type: cell-based; conditions: Pseudomonas fluorescens
Method: as §2

[12] = system: P. stutzeri; test: as above; type: cell-based; conditions: Stutzerimonas stutzeri
Method: as §2

[13] = system: S. marcescens; test: MIC of carbapenem by Etest (Example 2); type: cell-based, Serratia marcescens
Method: as §1

[14] = system: E. asburiae; test: MIC of carbapenem by Etest (Example 2); type: cell-based, Enterobacter asburiae; conditions: E. asburiae IMI-2, n=1
Method: as §1

[15] = system: E. cloacae; test: MIC of carbapenem by Etest (Example 2); type: cell-based, Enterobacter cloacae
Method: as §1

[16] = system: P. stuartii; test: MIC of carbapenem by Etest (Example 2); type: cell-based, Providencia stuartii; conditions: P. stuartii NDM-1, n=1
Method: as §1

[17] = system: P. mirabilis; test: MIC of carbapenem by Etest (Example 2); type: cell-based, Proteus mirabilis; conditions: Plasmid mediated AmpC or chromosomal AmpC + decreased membrane permeability; P. mirabilis ACC-1, n=1
Method: as §1

Q: For `C[C@@H](O)[C@H]1C(=O)N2C(C(=O)O)=C(S[C@@H]3CN[C@H](C(=O)N(C)C)C3)[C@H](C)[C@H]12` [MER, meropenem], which MICs range ([1]; E. coli IMP-1, n=2) is on record?
A: Its MICs range is 0.5 to 1 mg/L.

Q: And the MICs range ([1]; E. coli IMP-8, n=1)?
A: Its MICs range is 3 mg/L.

Q: What about the MICs range ([1]; E. coli KPC-2, n=5) of the same compound?
A: Its MICs range is 0.5 to 2 mg/L.

Q: What about the MICs range ([1]; E. coli NDM-1, n=7) of the same compound?
A: The MICs range was 1 to 16 mg/L.

Q: What about the MICs range ([1]; E. coli OXA-48, n=6) of the same compound?
A: The MICs range was 0.12 to 1 mg/L.

Q: What about the MICs range ([1]; E. coli VIM-1, n=2) of the same compound?
A: Its MICs range is 0.5 to 1 mg/L.

Q: What about the MICs range ([1]; E. coli VIM-2, n=2) of the same compound?
A: The MICs range was 0.38 to 0.5 mg/L.

Q: What about the MICs range ([1]; E. coli VIM-19, n=1) of the same compound?
A: The MICs range was 4 mg/L.

Q: And the MICs range ([1]; ESBLs, E. coli CTX-M-1, n=1)?
A: The MICs range was 0.12 mg/L.

Q: And the MICs range ([1]; ESBLs, E. coli CTX-M-3, n=1)?
A: The MICs range was 0.12 mg/L.

Q: What about the MICs range ([1]; ESBLs, E. coli CTX-M-14, n=2) of the same compound?
A: Its MICs range is 0.12 mg/L.

Q: What about the MICs range ([1]; ESBLs, E. coli CTX-M-15, n=2) of the same compound?
A: The MICs range was 0.12 mg/L.

Q: And the MICs range ([1]; ESBLs, E. coli VEB-1, n=1)?
A: Its MICs range is 0.12 mg/L.

Q: What about the MICs range ([1]; Plasmid mediated AmpC or chromosomal AmpC + decreased membrane permeability, E. coli ACC-1, n=1) of the same compound?
A: Its MICs range is 0.12 mg/L.

Q: What about the MICs range ([1]; Plasmid mediated AmpC or chromosomal AmpC + decreased membrane permeability, E. coli CMY-2, n=1) of the same compound?
A: The MICs range was 0.12 mg/L.

Q: And the MICs range ([1]; Plasmid mediated AmpC or chromosomal AmpC + decreased membrane permeability, E. coli CMY-10, n=1)?
A: Its MICs range is 0.12 mg/L.

Q: What about the MICs range ([1]; Plasmid mediated AmpC or chromosomal AmpC + decreased membrane permeability, E. coli DHA-1, n=1) of the same compound?
A: Its MICs range is 0.12 mg/L.

Q: And the MICs range ([1]; Plasmid mediated AmpC or chromosomal AmpC + decreased membrane permeability, E. coli Extended spectrum cephalosporinase, n=1)?
A: Its MICs range is 0.12 mg/L.

Q: And the MICs range ([1]; Plasmid mediated AmpC or chromosomal AmpC + decreased membrane permeability, E. coli Overexpressed cephalosporinase, n=1)?
A: Its MICs range is 2 mg/L.

Q: What about the MICs range ([2]; P. rettgeri NDM-1, n=1) of the same compound?
A: The MICs range was 1.5 mg/L.

Q: What about the MICs range ([2]; P. rettgeri OXA-181, n=1) of the same compound?
A: The MICs range was 2 mg/L.

Q: And the MICs range ([3]; C. freundii KPC-2, n=2)?
A: Its MICs range is 1.5 to 3 mg/L.

Q: What about the MICs range ([3]; C. freundii NDM-1, n=1) of the same compound?
A: The MICs range was over 32 mg/L.

Q: What about the MICs range ([3]; ESBL + decreased membrane permeability, C. freundii TEM-3, n=1) of the same compound?
A: The MICs range was 1 mg/L.

Q: And the MICs range ([4]; E. aerogenes KPC-2, n=1)?
A: Its MICs range is 8 mg/L.

Q: And the MICs range ([4]; Plasmid mediated AmpC or chromosomal AmpC + decreased membrane permeability, E. aerogenes Overexpressed cephalosporinase, n=1)?
A: Its MICs range is 0.75 mg/L.

Q: What about the MICs range [5] of the same compound?
A: Its MICs range is 0.25 mg/L.

Q: And the MICs range [6]?
A: Its MICs range is 2 mg/L.

Q: And the MICs range [7]?
A: The MICs range was 0.25 mg/L.

Q: And the MICs range ([8]; ESBL + decreased membrane permeability, K. pneumoniae SHV-2a, n=1)?
A: Its MICs range is 0.38 mg/L.

Q: And the MICs range ([8]; ESBL + decreased membrane permeability, K. pneumoniae SHV-28, n=1)?
A: The MICs range was 1 mg/L.

Q: What about the MICs range ([8]; ESBLs, K. pneumoniae CTX-M-3, n=1) of the same compound?
A: The MICs range was 0.12 mg/L.

Q: What about the MICs range ([8]; ESBLs, K. pneumoniae CTX-M-14, n=1) of the same compound?
A: The MICs range was 0.12 mg/L.

Q: What about the MICs range ([8]; ESBLs, K. pneumoniae CTX-M-15, n=3) of the same compound?
A: Its MICs range is 0.12 mg/L.

Q: And the MICs range ([8]; K. pneumoniae IMP-1, n=5)?
A: The MICs range was 1 to 8 mg/L.

Q: What about the MICs range ([8]; K. pneumoniae IMP-8, n=2) of the same compound?
A: The MICs range was 0.5 mg/L.

Q: And the MICs range ([8]; K. pneumoniae KPC-3, n=3)?
A: The MICs range was 1 to 8 mg/L.

Q: And the MICs range ([8]; K. pneumoniae NDM-4, n=1)?
A: Its MICs range is over 32 mg/L.

Q: And the MICs range ([8]; K. pneumoniae OXA-181, n=2)?
A: The MICs range was 0.5 to 1 mg/L.

Q: And the MICs range ([8]; K. pneumoniae VIM-19, n=1)?
A: Its MICs range is 4 mg/L.

Q: And the MICs range ([8]; Plasmid mediated AmpC or chromosomal AmpC + decreased membrane permeability, K. pneumoniae DHA-1, n=1)?
A: The MICs range was over 32 mg/L.

Q: What about the MICs range ([8]; Plasmid mediated AmpC or chromosomal AmpC + decreased membrane permeability, K. pneumoniae DHA-2, n=1) of the same compound?
A: The MICs range was 0.12 mg/L.

Q: And the MICs range [9]?
A: The MICs range was 0.5 mg/L.

Q: What about the MIC ([10]; CIP55, P. putida CIP 55-5, wild type, none) of the same compound?
A: The MIC was 3 ng/mL (≈ 0.00782 µM).

Q: And the MIC ([10]; P. putida 9335, VIM-2)?
A: The MIC was over 32 ng/mL.

Q: What about the MIC ([10]; P. putida NTU 91/99, VIM-2) of the same compound?
A: The MIC was over 32 ng/mL.

Q: And the MIC ([10]; P. putida NTU 92/99, IMP-1)?
A: The MIC was 0.19 ng/mL (≈ 0.000495 µM).

Q: And the MIC ([11]; P. fluorescens COU, VIM-2)?
A: Its MIC is over 32 ng/mL.

Q: What about the MIC ([11]; P. fluorescens, BIC-1) of the same compound?
A: The MIC was 4 ng/mL (≈ 0.0104 µM).

Q: And the MIC ([12]; P. stutzeri 13, DIM-1)?
A: Its MIC is over 32 ng/mL.

Q: What about the MIC ([12]; P. stutzeri P511503100, VIM-2) of the same compound?
A: The MIC was over 32 ng/mL.

Q: What about the MIC ([12]; P. stutzeri PB207, IMP-1) of the same compound?
A: Its MIC is 4 ng/mL (≈ 0.0104 µM).

Q: What about the MICs range ([13]; S. marcescens IMP-11, n=1) of the same compound?
A: Its MICs range is 2 mg/L.

Q: What about the MICs range ([13]; S. marcescens KPC-2, n=2) of the same compound?
A: Its MICs range is over 32 mg/L.

Q: What about the MICs range ([13]; S. marcescens SME-1, n=1) of the same compound?
A: Its MICs range is 12 mg/L.

Q: What about the MICs range ([13]; S. marcescens SME-2, n=1) of the same compound?
A: The MICs range was 12 mg/L.

Q: What about the MICs range ([13]; S. marcescens VIM-2, n=1) of the same compound?
A: The MICs range was over 32 mg/L.

Q: And the MICs range [14]?
A: The MICs range was over 32 mg/L.

Q: What about the MICs range ([15]; E. cloacae GES-5, n=1) of the same compound?
A: Its MICs range is over 32 mg/L.

Q: What about the MICs range ([15]; E. cloacae IMP-8, n=2) of the same compound?
A: The MICs range was 0.5 to 1 mg/L.

Q: And the MICs range ([15]; E. cloacae KPC-2, n=7)?
A: Its MICs range is 0.75 to 16 mg/L.

Q: And the MICs range ([15]; E. cloacae NDM-1, n=1)?
A: Its MICs range is 2 mg/L.

Q: What about the MICs range ([15]; E. cloacae NMC-A, n=1) of the same compound?
A: The MICs range was 16 mg/L.

Q: And the MICs range ([15]; E. cloacae OXA-48, n=3)?
A: The MICs range was 0.5 to 1.5 mg/L.

Q: And the MICs range ([15]; ESBLs, E. cloacae CTX-M-15, n=3)?
A: The MICs range was 0.12 mg/L.

Q: What about the MICs range ([15]; ESBLs, E. cloacae VEB-1, n=1) of the same compound?
A: The MICs range was 0.12 mg/L.

Q: And the MICs range [16]?
A: The MICs range was 1.5 mg/L.

Q: And the MICs range [17]?
A: The MICs range was 0.12 mg/L.
